Experimental data taken from patent US20220242850A1, “PHTHALAZIN-1-ONE DERIVATIVES USEFUL AS GRK2 INHIBITORS” (Janssen Pharmaceutica NV, priority 2019, published 2022).
pIC50: −log10 of the molar value.

Molecular target: T1, GRK2 (Homo sapiens, UniProt P25098)
T1 sequence (P25098 1-689): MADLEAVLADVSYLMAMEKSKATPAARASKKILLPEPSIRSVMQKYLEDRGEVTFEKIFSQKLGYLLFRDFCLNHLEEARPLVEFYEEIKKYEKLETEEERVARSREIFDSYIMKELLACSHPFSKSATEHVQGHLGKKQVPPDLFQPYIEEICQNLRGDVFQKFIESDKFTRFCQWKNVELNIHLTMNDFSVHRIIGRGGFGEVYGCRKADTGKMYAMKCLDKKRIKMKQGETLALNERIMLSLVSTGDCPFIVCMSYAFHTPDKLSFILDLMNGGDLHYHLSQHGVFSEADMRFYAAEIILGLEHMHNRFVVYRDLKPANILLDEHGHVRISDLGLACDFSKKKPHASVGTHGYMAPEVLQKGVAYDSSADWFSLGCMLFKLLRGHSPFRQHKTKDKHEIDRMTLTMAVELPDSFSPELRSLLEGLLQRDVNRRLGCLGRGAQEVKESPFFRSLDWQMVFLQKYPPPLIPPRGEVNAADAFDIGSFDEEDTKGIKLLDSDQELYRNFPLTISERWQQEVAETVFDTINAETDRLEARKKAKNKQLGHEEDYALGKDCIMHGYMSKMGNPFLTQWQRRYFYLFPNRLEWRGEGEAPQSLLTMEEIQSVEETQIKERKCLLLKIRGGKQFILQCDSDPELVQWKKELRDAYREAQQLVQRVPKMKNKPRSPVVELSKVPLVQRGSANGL
Assay: hGRK2 LANCE Ultra In Vitro Assay
Type: biochemical
Conditions: hGRK2 LANCE Ultra Assay IC50, 10 nM GRK2; ATP 30 or 600 μM (not stated which)
Procedure: G-protein coupled receptor kinases (GR Kinases) desensitize activated G-protein coupled receptors (GPCRs), by phosphorylation of cytoplasmic loops or carboxyl-terminal tails of GPCRs. GRK2 is one of the 6 different GR kinases and is implicated in heart failure and diabetes.
This assay is sensitive and requires as low as 10 nM enzyme, in a total volume of 10 μL. In addition, the ATP concentration can be varied over a broad range, without interfering with the assay or changing the assay condition. […] Testing inhibitors routinely at both high and low ATP concentrations also enables identification of potential non-ATP competitive inhibitors.
Paroxetine was used as the reference compound in this assay.
Test compounds were dissolved in DMSO at 1 mM and were 3-fold serial diluted. The compound DMSO solutions were then added (100 nL) into a plate well using an acoustic dispenser. To each well was then added 20 nM GRK2 (5 μL) in assay buffer (20 mM HEPES, pH 7.5, 10 mM MgCl2, 0.001% Tween-20®). The plate was sealed and centrifuged at 1000 rpm for 1 min. The plate and wells containing a mixture of GRK2 and test compound were incubated at ambient temperature for 30 min (prior to initializing the enzymatic reaction).
Enzyme reactions were initiated by the addition of 4.9 μL Substrates/Eu-Ab mix to each well. […] Final concentrations of reagents in the assays were as follows: 20 mM HEPES, pH 7.5; 10 mM MgCl2; 0.001% Tween-2® (w/v), 30 or 600 μM ATP; 200 nM ULight-peptide; 4 nM Eu-Ab; 10 nM GRK2; and 1% DMSO.
The plates were sealed and centrifuged at 1000 rpm for 1 min. For reactions at low ATP concentration (30 μM), reaction mixtures were incubated at ambient temperature for 120 min. For reactions at high ATP concentration (600 μM), reaction mixtures were incubated at ambient temperature for 60 min.
The enzyme reactions were quenched by addition of 10 μL of 12 mM EDTA in 1× LANCE detection solution to each well. The plates were then incubated at ambient temperature for 30 min.
The raw HTRF data were converted to % active as follows:
% active=(sample−NC)/(PC−NC)*100
where NC is the mean of negative control (reactions without GRK2), and PC is the mean of positive control (reactions with GRK2 but without inhibitor). IC50 values were determined from a 4-parameter fit, using the following equation:
Y=Bottom+(Top−Bottom)/(1+10^(Log IC50-X)*Hill slope)),
where X=log10 of the compound concentration.

Row | Structure (SMILES) | pIC50
1 | O=C(NC1CC1)c1cc(F)cc(Cn2ncc3ccc(-c4cn[nH]c4)cc3c2=O)c1 [Compound 5] | 8.20
2 | O=C(NC1CC2CCC1C2)c1cccc(Cn2ncc3ccc(-c4cn[nH]c4)cc3c2=O)c1 (stereo not drawn) [Compound 3, N-Norbornan-2-yl-3-[[1-oxo-7-(1H-pyrazol-4-yl)phthalazin-2-yl]methyl]benzamide] | 8.30
3 | CN(C)C(=O)COc1cccc(Cn2ncc3ccc(-c4cn[nH]c4)cc3c2=O)c1 [Compound 12, N,N-Dimethyl-2-[3-[[1-oxo-7-(1H-pyrazol-4-yl)phthalazin-2-yl]methyl]phenoxy]acetamide] | 7.89
4 | COc1cccc(C(C)n2ncc3ccc(-c4cn[nH]c4)cc3c2=O)c1 (single isomer, unassigned) [Compound 16, 2-[1-(3-Methoxyphenyl)ethyl]-7-(1H-pyrazol4-yl)phthalazin-1-one] | 7.05
5 | COc1cccc(C(C(=O)O)n2ncc3ccc(-c4cn[nH]c4)cc3c2=O)c1 (stereo not drawn) [Compound 18, 2-(3-Methoxyphenyl)-2-[1-oxo-7-(1H-pyrazol-4-yl)phthalazin-2-yl]acetic acid] | < 4.70
6 | Cc1cccc(Cl)c1CNC(=O)c1cccc(Cn2ncc3ccc(-c4cn[nH]c4)cc3c2=O)c1 [Compound 2, N-[(2-Chloro-6-methyl-phenyl)methyl]-3-[[1-oxo-7-(1H-pyrazol4-yl)phthaiazin-2-yl]methyl]benzamide] | > 8.30
7 | C#CCOc1cccc(Cn2ncc3ccc(-c4cn[nH]c4)c(F)c3c2=O)c1 [Compound 14, 8-Fluoro-2-[(3-prop-2-ynoxyphenyl)methyl]-7-(1H-pyrazol-4-yl)phthalazin-1-one] | 7.60
8 | O=C(NC1CC1)c1cccc(Cn2ncc3ccc(-c4cn[nH]c4)cc3c2=O)c1 [Compound 7, N-Cyclopropyl-3-[[1-oxo-7-(1H-pyrazol-4-yl)phthalazin-2-yl]methyl]benzamide] | 8.00
9 | CC(C)NC(=O)c1cc(Cn2ncc3ccc(-c4cn[nH]c4)cc3c2=O)ccc1F [Compound 11, 2-Fluoro-N-isopropyl-5-[[1-oxo-7-(1H-pyrazol-4-yl)phthalazin-2-yl]methyl]benzamide] | 7.92
